The source of these data is US20150274719A1, “AMINO-SUBSTITUTED IMIDAZO[1,2-A]PYRIDINECARBOXAMIDES AND THEIR USE” (BAYER PHARMA AKTIENGESELLSCHAFT, priority 2012, published 2015).

In the assay the target is T1, recombinant guanylate cyclase reporter cell line (Rattus norvegicus, UniProt P19686+P20595).
T1 construct: expressed in transfected cells; host or cells: recombinant reporter cell line
T1 sequence (P19686 1-690): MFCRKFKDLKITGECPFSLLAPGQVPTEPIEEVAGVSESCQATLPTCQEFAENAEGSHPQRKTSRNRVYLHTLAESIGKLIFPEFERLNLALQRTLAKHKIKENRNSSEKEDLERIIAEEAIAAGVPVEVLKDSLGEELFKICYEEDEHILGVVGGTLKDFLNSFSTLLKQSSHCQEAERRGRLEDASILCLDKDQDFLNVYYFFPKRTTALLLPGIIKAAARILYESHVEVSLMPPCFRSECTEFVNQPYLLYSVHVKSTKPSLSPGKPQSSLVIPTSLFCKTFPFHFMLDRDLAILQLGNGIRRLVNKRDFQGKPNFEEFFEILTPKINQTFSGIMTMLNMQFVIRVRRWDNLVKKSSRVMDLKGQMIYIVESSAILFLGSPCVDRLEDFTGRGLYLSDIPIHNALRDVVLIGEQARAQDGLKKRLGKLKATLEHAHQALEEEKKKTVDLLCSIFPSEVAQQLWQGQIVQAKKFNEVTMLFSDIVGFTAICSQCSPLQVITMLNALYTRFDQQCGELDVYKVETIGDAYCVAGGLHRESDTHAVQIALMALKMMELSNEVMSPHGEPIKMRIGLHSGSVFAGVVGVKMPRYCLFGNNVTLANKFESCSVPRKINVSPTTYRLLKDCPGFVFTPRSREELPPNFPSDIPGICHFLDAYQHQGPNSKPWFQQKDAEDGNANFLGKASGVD
T1 sequence (P20595 1-619): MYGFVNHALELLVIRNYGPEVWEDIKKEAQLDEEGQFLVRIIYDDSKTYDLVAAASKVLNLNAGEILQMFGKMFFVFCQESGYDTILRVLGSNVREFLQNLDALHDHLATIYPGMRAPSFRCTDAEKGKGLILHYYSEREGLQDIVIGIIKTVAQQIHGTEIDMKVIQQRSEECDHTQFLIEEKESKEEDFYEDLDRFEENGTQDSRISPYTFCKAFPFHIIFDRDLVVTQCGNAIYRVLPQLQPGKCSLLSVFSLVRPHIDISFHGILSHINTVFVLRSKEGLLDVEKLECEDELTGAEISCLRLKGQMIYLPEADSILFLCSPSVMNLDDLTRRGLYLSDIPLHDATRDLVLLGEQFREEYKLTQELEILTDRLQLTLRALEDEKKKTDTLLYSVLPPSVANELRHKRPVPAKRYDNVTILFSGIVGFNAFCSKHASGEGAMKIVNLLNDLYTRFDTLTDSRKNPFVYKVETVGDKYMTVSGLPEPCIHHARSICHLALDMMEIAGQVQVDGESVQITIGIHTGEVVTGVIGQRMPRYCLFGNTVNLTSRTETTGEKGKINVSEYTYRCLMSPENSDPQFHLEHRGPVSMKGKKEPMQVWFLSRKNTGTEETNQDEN
Briefly: Action on recombinant guanylate cyclase reporter cell line. The class given is cell-based. The settings on record: in some cases mean values from individual determinations. The gist of the method:
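Each compound is applied to a cell line engineered with a reporter for recombinant guanylate cyclase. The minimal effective concentration is then noted, in part as a mean across separate determinations.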

As to `Cc1nc2c(OCc3c(F)cccc3F)cccn2c1C(=O)NC1CC2CCC(C1)N2C` (centres unmarked) [Example 91, 8-[(2,6-difluorobenzyl)oxy]-2-methyl-N-(8-methyl-8-azabicyclo[3.2.1]oct-3-yl)imidazo[1,2-a]pyridine-3-carboxamide], the “MEC (minimal effective concentration)” value turned out to be 1.00 µM.
The same measure for `Cc1nc2c(OCc3c(F)cccc3F)cccn2c1C(=O)NC1CN2CCC1CC2` (centres unmarked) [Example 92, N-(1-azabicyclo[2.2.2]oct-3-yl)-8-[(2,6-difluorobenzyl)oxy]-2-methylimidazo[1,2-a]-pyridine-3-carboxamide]: 0.30 µM.
As for `Cc1cc(OCc2c(F)cccc2F)c2nc(C)c(C(=O)NCC(C)(C)NCC(F)(F)F)n2c1` [Example 94, 8-[(2,6-Difluorobenzyl)oxy]-2,6-dimethyl-N-{2-methyl-2-[(2,2,2-trifluoroethyl)amino]propyl}-imidazo[1,2-a]pyridine-3-carboxamide], the “MEC (minimal effective concentration)” value is 0.30 µM.
Regarding `[2H]C([2H])(Oc1cccn2c(C(=O)NC(CN)c3ccc(F)c(F)c3)c(C)nc12)c1c(F)cccc1F` (stereo not drawn) [Example 97, ent-N-[2-Amino-1-(3,4-difluorophenyl)ethyl]-8-{[(2,6-difluorophenyl)(^2H2)methyl]oxy}-2-methylimidazo[1,2-a]pyridine-3-carboxamide], the “MEC (minimal effective concentration)” value was 0.10 µM.
With `Cc1nc2c(OCc3ccccc3F)cccn2c1C(=O)NC(CN)c1ccc(F)c(F)c1` (stereo not drawn) [Example 98, ent-N-[2-Amino-1-(3,4-difluorophenyl)ethyl]-8-[(2-fluorobenzyl)oxy]-2-methylimidazo[1,2-a]-pyridine-3-carboxamide], the “MEC (minimal effective concentration)” value came out at 1.00 µM.
Turning to `Cc1nc2c(OCc3cccc(F)c3F)cccn2c1C(=O)NC(CN)c1ccc(F)c(F)c1` (centres unmarked) [Example 99], the “MEC (minimal effective concentration)” value is 1.00 µM.
As for `Cc1nc2c(OCc3c(F)ccc(F)c3F)cccn2c1C(=O)NC(CN)c1ccc(F)c(F)c1` (stereo not drawn) [Example 100, ent-N-[2-amino-1-(3,4-difluorophenyl)ethyl]-2-methyl-8-[(2,3,6-trifluorobenzyl)oxy]imidazo[1,2-a]pyridine-3-carboxamide], the “MEC (minimal effective concentration)” value came to 0.30 µM.
The same measure for `Cc1nc2c(OCc3c(F)cc(F)cc3F)cccn2c1C(=O)NC(CN)c1ccc(F)c(F)c1` (stereo not drawn) [Example 101, ent-N-[2-amino-1-(3,,4-difluorophenyl)ethyl]-2-methyl-8-[(2,4,6-trifluorobenzyl)oxy]imidazo[1,2-a]pyridine-3-carboxamide]: 1.00 µM; for `Cc1nc2c(OCc3c(F)cccc3Cl)cccn2c1C(=O)NC(CN)c1ccc(F)c(F)c1` (stereo not drawn) [Example 102, ent-N-[2-amino-1-(3,4-difluorophenyl)ethyl]-8-[(2-chloro-6-fluorobenzyl)oxy]-2-methylimidazo[1,2-a]pyridine-3-carboxamide]: 1.00 µM.
Turning to `Cc1nc2c(OCc3c(F)cccc3F)cccn2c1C(=O)NCC(C)(C)CN` [Example 103, N-(3-amino-2,2-dimethylpropyl)-8-[(2,6-difluorobenzyl)oxy]-2-methylimidazo[1,2-a]-pyridine-3-carboxamide], the “MEC (minimal effective concentration)” value was 3.00 µM.
In the case of `Cc1nc2c(OCc3c(F)cccc3F)cc(Cl)cn2c1C(=O)NCCC(C)(C)N` [Example 104, N-(3-Amino-3-methylbutyl)-6-chloro-8-[(2,6-difluorobenzyl)oxy]-2-methylimidazo[1,2-a]-pyridine-3-carboxamide] it was 0.30 µM; in that of `Cc1cc(OCc2c(F)cccc2F)c2nc(C)c(C(=O)NCCC(C)(C)N)n2c1` [Example 114, N-(3-amino-3-methylbutyl)-8-[(2,6-difluorobenzyl)oxy]-2,6-dimethylimidazo[1,2-a]-pyridine-3-carboxamide], 0.30 µM; in that of `Cc1cc(OCc2c(F)cccc2F)c2nc(C)c(C(=O)NC[C@@H]3CCCN3)n2c1` [Example 115, 8-[(2,6-difluorobenzyl)oxy]-2,6-dimethyl-N-[(2S)-pyrrolidin-2-ylmethyl]imidazo[1,2-a]-pyridine-3-carboxamide], 1.00 µM.
In the case of `Cc1cc(OCc2c(F)cccc2F)c2nc(C)c(C(=O)NC[C@H]3CCCN3)n2c1` [Example 116, 8-[(2,6-difluorobenzyl)oxy]-2,6-dimethyl-N-[(2R)-pyrrolidin-2-ylmethyl]imidazo[1,2-a]-pyridine-3-carboxamide] it was 3.00 µM.
As for `Cc1nc2c(OCc3c(F)cccc3F)cccn2c1C(=O)NCCC(C)(C)N` [Example 117, N-(3-amino-3-methylbutyl)-8-[(2,6-difluorobenzyl)oxy]-2-methylimidazo[1,2-a]-pyridine-3-carboxamide], the “MEC (minimal effective concentration)” value came out at 1.00 µM.
As for `Cc1nc2c(OCc3c(F)cccc3F)cccn2c1C(=O)NC(C)[C@H](C)N` (stereo partly drawn) [Example 120, N-[(3S)-3-Aminobutan-2-yl]-8-[(2,6-difluorobenzyl)oxy]-2-methylimidazo[1,2-a]pyridine-3-carboxamide], the “MEC (minimal effective concentration)” value amounted to 0.30 µM.
Consider `Cc1nc2c(OCc3c(F)cccc3F)cccn2c1C(=O)NC(C)[C@@H](C)N` (stereo partly drawn) [Example 121, N-[(3R)-3-Aminobutan-2-yl]-8-[(2,6-difluorobenzyl)oxy]-2-methylimidazo[1,2-a]pyridine-3-carboxamide], for which the “MEC (minimal effective concentration)” value was found to be 0.30 µM.
`Cc1nc2c(OCc3c(F)cccc3F)cccn2c1C(=O)NC(CN)COc1ccc(F)c(F)c1` (stereo not drawn) [Example 124, ent-N-[1-Amino-3-(3,4-difluorophenoxyl)propan-2-yl]-8-[(2,6-difluorobenzyl)oxy]-2-methyl-imidazo[1,2-a]pyridine-3-carboxamide ditrifluoroacetate]: the “MEC (minimal effective concentration)” value is 1.00 µM.
With `Cc1nc2c(OCc3c(F)cccc3F)cccn2c1C(=O)NCCNC(C)C` [Example 130, 8-[(2,6-difluorobenzyl)oxy]-N-[2-(isopropylamino)ethyl]-2-methylimidazo[1,2-a]-pyridine-3-carboxamide], the “MEC (minimal effective concentration)” value worked out at 1.00 µM.
Turning to `Cc1nc2c(OCc3c(F)cccc3F)cccn2c1C(=O)NCCN1CCS(=O)(=O)CC1` [Example 131, 8-[(2,6-difluorobenzyl)oxy]-N-[2-(1,1-dioxidothiomorpholin-4-yl)ethyl]-2-methylimidazo[1,2-a]pyridine-3-carboxamide], the “MEC (minimal effective concentration)” value amounted to 3.00 µM.
As to `Cc1nc2c(OCc3c(F)cccc3F)cccn2c1C(=O)NCCN1CCN(C)CC1` [Example 133, 8-[(2,6-difluorobenzyl)oxy]-2-methyl-N-[2-(4-methylpiperazin-1-yl)ethyl]imidazo[1,2-a]-pyridine-3-carboxamide], the “MEC (minimal effective concentration)” value worked out at 3.00 µM.
For the molecule `Cc1cc(OCc2c(F)cccc2F)c2nc(C)c(C(=O)NCCN3CCOCC3)n2c1` [Example 136, 8-[(2,6-difluorobenzyl)oxy]-2,6-dimethyl-N-[2-(morpholin-4-yl)ethyl]imidazo[1,2-a]pyridine-3-carboxamide], the “MEC (minimal effective concentration)” value amounted to 0.10 µM.
On to `Cc1cc(OCc2c(F)cccc2F)c2nc(C)c(C(=O)NCCN3CCN(C)CC3)n2c1` [Example 137, 8-[(2,6-difluorobenzyl)oxy]-2,6-dimethyl-N-[2-(4-methylpiperazin-1-yl)ethyl]imidazo[1,2-a]-pyridine-3-carboxamide], for which the “MEC (minimal effective concentration)” value was 1.00 µM.
